# Measured values from US20070123476A1, “Polyene antibiotic for controlling fungal growth in banana crops” (priority 2004, published 2007).
# Assays:
# M. fijensis = assay: Minimal inhibitory concentration on agar plates containing natamycin (agar diffusion method); format: cell-based, Mycosphaerella fijiensis; conditions: Pseudocercospora fijiensis; spores grown on agar plates with different natamycin concentrations; no visible growth
# Experimental: (§1) The minimal inhibition concentration of these moulds or the minimal effective amount of the antifungal compound was determined using the agar diffusion method, which is well known in the art. Mould spores were grown on agar plates containing different concentrations of natamycin. The concentration of natamycin on which no visible growth could be observed was considered as the minimal inhibitory concentration (MIC) for that particular mould strain.
# Fusarium oxysporum f.sp = assay: as above; format: cell-based, Fusarium oxysporum f. sp. cubense; conditions: spores grown on agar plates with different natamycin concentrations, no visible growth
# Experimental: as §1
# most fungi = conditions: general background statement; cited from earlier work
# [1] = cited from earlier work
structure (smiles),measurement,setting,value
C[C@@H]1C/C=C/C=C/C=C/C=C/[C@H](O[C@@H]2O[C@H](C)[C@@H](O)[C@H](N)[C@@H]2O)C[C@@H]2O[C@](O)(C[C@@H](O)C[C@H]3O[C@@H]3/C=C/C(=O)O1)C[C@H](O)[C@H]2C(=O)O [natamycin],MIC,M. fijensis,3 to 7 µg/mL
same,MIC,Fusarium oxysporum f.sp,3 to 7 µg/mL
same,MIC (Minimal Inhibition Concentration) of most fungi,most fungi,less than 20 ppm
same,solubility in water,[1],30-50 ppm
